± gives the expanded uncertainty stated by the source.

Series [1] in a line: xn = mol fraction of the nth substance listed. The note with it: 283.15 K; 98.93 kPa; Liquid; x2 = 0.

`CC(O)CO` (centres undefined) [1,2-propanediol]: the mass density (283.15 K, 101.33 kPa, Liquid) was 1043.32 ± 1.5 kg/m3; the mass density (288.15 K, 101.33 kPa, Liquid) turned out to be 1040.45 ± 1.5 kg/m3; the mass density (293.15 K, 101.33 kPa, Liquid) is 1036.15 ± 1.4 kg/m3; the mass density (298.15 K, 101.33 kPa, Liquid) is 1032.71 ± 1.5 kg/m3; the mass density (303.15 K, 101.33 kPa, Liquid) is recorded as 1029.62 ± 1.5 kg/m3; the mass density (308.15 K, 101.33 kPa, Liquid) was 1025.13 ± 1.6 kg/m3.

Take `OCC(O)CO` [glycerol]: the mass density runs as follows: (283.15 K, 101.33 kPa, Metastable liquid) 1266.31 ± 2.2 kg/m3; (288.15 K, 101.33 kPa, Metastable liquid) 1264.39 ± 2.1 kg/m3; (293.15 K, 101.33 kPa, Metastable liquid) 1262.53 ± 2.1 kg/m3; (298.15 K, 101.33 kPa, Metastable liquid) 1258.73 ± 2.1 kg/m3; (303.15 K, 101.33 kPa, Metastable liquid) 1254.9 ± 2.2 kg/m3; (308.15 K, 101.33 kPa, Metastable liquid) 1252.65 ± 2.2 kg/m3.

As to `OCCCO` [propan-1,3-diol], the mass density runs as follows: (283.15 K, 101.33 kPa, Liquid) 1056.92 ± 1.7 kg/m3; (288.15 K, 101.33 kPa, Liquid) 1055.67 ± 1.6 kg/m3; (293.15 K, 101.33 kPa, Liquid) 1053.64 ± 1.6 kg/m3; (298.15 K, 101.33 kPa, Liquid) 1050.37 ± 1.7 kg/m3; (303.15 K, 101.33 kPa, Liquid) 1047.58 ± 1.7 kg/m3; (308.15 K, 101.33 kPa, Liquid) 1044.25 ± 1.8 kg/m3.

For `CCCO` [propan-1-ol], the mass density (283.15 K, 101.33 kPa, Liquid) is 811.34 ± 1.2 kg/m3; the mass density (288.15 K, 101.33 kPa, Liquid) is 807.51 ± 1.1 kg/m3; the mass density (293.15 K, 101.33 kPa, Liquid) is 803.65 ± 1.1 kg/m3; the mass density (298.15 K, 101.33 kPa, Liquid) was 799.67 ± 1.1 kg/m3; the mass density (303.15 K, 101.33 kPa, Liquid) is on record as 795.95 ± 1.2 kg/m3; the mass density (308.15 K, 101.33 kPa, Liquid) was 791.57 ± 1.2 kg/m3.

Regarding `O` [water], the mass density (283.15 K, 98.93 kPa, Liquid) is reported as 999.7 ± 1.3 kg/m3.

Consider `O` [water] + CC(O)CO, for which, in series [1], the mass density came to 999.7 ± 1.3 kg/m3.

With `O` [water] + CCCO, in series [1], the mass density was determined as 999.69 ± 1.3 kg/m3.

Turning to `O` [water] + OCC(O)CO, the mass density in series [1] is recorded as 999.7 ± 1.3 kg/m3.

Take `O` [water] + OCCCO: in series [1], the mass density amounted to 999.7 ± 1.3 kg/m3.

As a reminder, the mass density is mass per unit of volume.

(Values after the NIST ThermoML archive (doi:10.1016/j.jct.2008.07.005).)
